Experimental data: patent US20260042755A1, “GPR6 INVERSE AGONISTS” (MapLight Therapeutics, Inc., priority 2022, published 2026)

Key:
GPR6 = target: T1, GPR6 (Homo sapiens, UniProt P46095); assay: GPR6 antagonist functional cAMP assay (LANCE Ultra cAMP TR-FRET, CHO cells stably expressing GPR6); format: cell-based
T1 construct: expressed in transfected cells; host or cells: CHO cells
Procedure, shortened: (§1)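 Compounds, at 0.1% final DMSO, acted on the cells for 45 minutes at 37 °C in the presence of the phosphodiesterase inhibitor Ro 20-1724 (150 μM). After lysis and detection, plates were shaken 1 h at room temperature and emission at 665 nm was recorded. Normalized data gave IC50 values.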

GPR3 = target: T2, GPR3 (Homo sapiens, UniProt P46089); assay: GPR3 antagonist functional cAMP assay (LANCE Ultra cAMP TR-FRET, CHO cells stably expressing GPR3); format: cell-based
T2 construct: expressed in transfected cells; host or cells: CHO cells
T2 sequence (P46089 whole entry, species assumed): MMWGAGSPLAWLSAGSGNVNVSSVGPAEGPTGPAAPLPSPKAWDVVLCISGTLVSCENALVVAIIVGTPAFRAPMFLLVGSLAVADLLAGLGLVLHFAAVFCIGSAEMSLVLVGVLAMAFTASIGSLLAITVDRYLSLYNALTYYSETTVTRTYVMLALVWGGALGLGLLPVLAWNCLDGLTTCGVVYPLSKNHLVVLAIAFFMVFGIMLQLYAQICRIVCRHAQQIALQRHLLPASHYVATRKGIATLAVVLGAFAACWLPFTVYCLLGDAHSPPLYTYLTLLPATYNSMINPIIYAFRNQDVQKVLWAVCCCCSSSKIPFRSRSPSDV
Procedure, shortened: as §1

[1] = CHO cells stably expressing GPR6, cAMP assay (Example 24)
[2] = CHO cells stably expressing GPR3, cAMP assay (Example 24)
[3] = CHO cells stably expressing GPR6, cAMP assay
[4] = CHO cells stably expressing GPR3, cAMP assay
[5] = procedure as described in Example 24

T1 sequence (P46095 whole entry): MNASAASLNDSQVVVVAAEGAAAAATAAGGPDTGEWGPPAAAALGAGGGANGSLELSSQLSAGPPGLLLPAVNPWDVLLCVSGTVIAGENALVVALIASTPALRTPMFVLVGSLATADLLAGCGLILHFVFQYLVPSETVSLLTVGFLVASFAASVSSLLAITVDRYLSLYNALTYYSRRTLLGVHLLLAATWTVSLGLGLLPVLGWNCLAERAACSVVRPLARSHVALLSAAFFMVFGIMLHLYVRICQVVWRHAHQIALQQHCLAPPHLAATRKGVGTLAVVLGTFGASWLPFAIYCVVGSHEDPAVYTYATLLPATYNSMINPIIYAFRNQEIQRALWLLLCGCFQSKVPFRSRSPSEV

## CC(=O)N1CCc2nc(N3CCC(Oc4ccc(F)cc4F)CC3)c(C3=COCCC3)nc2C1 [Compound 219, 1-{2-[4-(2,4-difluorophenoxy)piperidin-1-yl]-3-(3,4-dihydro-2H-pyran-5-yl)-5H,6H,7H,8H-pyrido[3,4-b]pyrazin-6-yl}ethan-1-one]
GPR6; [1]
  IC50: 100 to 1000 nM
GPR3; [2]
  IC50: ≥ 30 µM

## Cn1cc(-c2nc3cnc(C(=O)C(C)(C)O)cc3nc2N2CCC(Oc3ccc(F)cc3F)CC2)cn1 [Compound 413, 1-(2-(4-(2,4-difluorophenoxy)piperidin-1-yl)-3-(1-methyl-1H-pyrazol-4-yl)pyrido[3,4-b]pyrazin-7-yl)-2-hydroxy-2-methylpropan-1-one]
GPR6; [1]
  IC50: 100 to 1000 nM
GPR3; [2]
  IC50: 1 to 30 µM

## O=C(O)c1cc2nc(-c3cnn(CF)c3)c(N3CCN(Cc4ccc(F)cc4F)CC3)nc2cn1 [Compound 765, 3-{4-[(2,4-difluorophenyl)methyl]-1-piperazinyl}-2-[1-(fluoromethyl)-4-pyrazolyl]-1,4,6-triaza-7-naphthoic acid]
GPR6; procedure of Example 24
  IC50: 1000 to 30000 nM
GPR3; procedure of Example 24
  IC50: 1 to 30 µM

## CC(C)(O)[C@@H](O)c1cc2nc(N3CCC(Oc4ccc(F)cc4F)CC3)c(-c3cnn(C4CC4)c3)nc2cn1 (single isomer, unassigned) [Compound 573]
GPR6; [3]
  IC50: 100 to 1000 nM
GPR3; [4]
  IC50: 1 to 30 µM

## CNC(=O)N1CCc2nc(N3CCC(Oc4ccc(F)cc4F)CC3)c(-c3cnn(C4CCCCO4)c3)nc2C1 (centres unmarked) [Compound 181, 2-[4-(2,4-difluorophenoxy)piperidin-1-yl]-N-methyl-3-[1-(oxan-2-yl)-1H-pyrazol-4-yl]-5H,6H,7H,8H-pyrido[3,4-b]pyrazine-6-carboxamide]
GPR6; [1]
  IC50: 1000 to 30000 nM
GPR3; [2]
  IC50: 1 to 30 µM

## CC(=O)N1CCc2nc(N3CCC(Oc4ccc(F)cc4F)CC3)c(-c3cncc(C)n3)nc2C1 [Compound 444, 1-{2-[4-(2,4-difluorophenoxy)piperidin-1-yl]-3-(6-methylpyrazin-2-yl)-5H,6H,7H,8H-pyrido[3,4-b]pyrazin-6-yl}ethan-1-one]
GPR6; [1]
  IC50: 1000 to 30000 nM
GPR3; [2]
  IC50: 1 to 30 µM

## CCn1cc(-c2nc3cnc(C(=O)C(C)(C)O)cc3nc2N2CCC(Oc3ccc(F)cc3F)CC2)cn1 [Compound 651, 1-{2-[4-(2,4-difluorophenoxy)-1-piperidyl]-3-(1-ethyl-4-pyrazolyl)-1,4,6-triaza-7-naphthyl}-2-hydroxy-2-methyl-1-propanone]
GPR6; procedure of Example 24
  IC50: 100 to 1000 nM
GPR3; procedure of Example 24
  IC50: 1 to 30 µM

## Cn1cc(-c2nc3cnc([C@@H](O)C(C)(C)O)cc3nc2N2CCN(Cc3ccc(F)cc3F)CC2)cn1 (single isomer, unassigned) [Compound 578]
GPR6; [3]
  IC50: 100 to 1000 nM
GPR3; [4]
  IC50: 1 to 30 µM

## CC(=O)N1CCc2nc(N3CCC(C(=O)c4ccc(F)cc4F)CC3)c(-c3cnn(C)c3)nc2C1 [Compound 541, 1-{2-[4-(2,4-difluorobenzoyl)-1-piperidyl]-3-(1-methyl-4-pyrazolyl)-5,6,7,8-tetrahydro-1,4,6-triaza-6-naphthyl}-1-ethanone]
GPR6; [3]
  IC50: 100 to 1000 nM
GPR3; [4]
  IC50: 1 to 30 µM

## COC(=O)/C=C/c1cc2nc(N3CCC(Oc4ccc(F)cc4F)CC3)c(-c3cnn(C)c3)nc2cn1 [Compound 745, methyl 3-{2-[4-(2,4-difluorophenoxy)-1-piperidyl]-3-(1-methyl-4-pyrazolyl)-1,4,6-triaza-7-naphthyl}acrylate]
GPR6; procedure of Example 24
  IC50: 1000 to 30000 nM
GPR3; procedure of Example 24
  IC50: 1 to 30 µM

## COc1cccc(CN2CCN(c3nc4c(nc3-c3cnn(C)c3)CN(C(C)=O)CC4)CC2)c1F [Compound 318, 1-(2-{4-[(2-fluoro-3-methoxyphenyl)methyl]piperazin-1-yl}-3-(1-methyl-1H-pyrazol-4-yl)-5H,6H,7H,8H-pyrido[3,4-b]pyrazin-6-yl)ethan-1-one]
GPR6; procedure of Example 24
  IC50: ≥ 30000 nM
GPR3; procedure of Example 24
  IC50: 1 to 30 µM

## CC(=O)N1CCc2nc(N3CCC(Oc4ccc(F)cc4F)CC3)c(-c3cnc4n3CCN(C(C)=O)C4)nc2C1 [Compound 17, 1-(3-(6-acetyl-2-(4-(2,4-difluorophenoxy)piperidin-1-yl)-5,6,7,8-tetrahydropyrido[3,4-b]pyrazin-3-yl)-5,6-dihydroimidazo[1,2-a]pyrazin-7(8H)-yl)ethan-1-one]
GPR6; [5]
  IC50: 1000 to 30000 nM
GPR3; [5]
  IC50: 1 to 30 µM

## CCc1cccc(-c2nc3c(nc2N2CCC(Oc4ccc(F)cc4F)CC2)CCN(C(C)=O)C3)n1 [Compound 477, 1-{2-[4-(2,4-difluorophenoxy)piperidin-1-yl]-3-(6-ethylpyridin-2-yl)-5H,6H,7H,8H-pyrido[3,4-b]pyrazin-6-yl}ethan-1-one]
GPR6; [1]
  IC50: 1000 to 30000 nM
GPR3; [2]
  IC50: 1 to 30 µM

## CCn1cc(-c2nc3cnc(N)cc3nc2N2CCC(Oc3cc(Cl)ccc3Cl)CC2)cn1 [Compound 440, 2-[4-(2,5-dichlorophenoxy)piperidin-1-yl]-3-(1-ethyl-1H-pyrazol-4-yl)pyrido[3,4-b]pyrazin-7-amine]
GPR6; [1]
  IC50: 1000 to 30000 nM
GPR3; [2]
  IC50: 1 to 30 µM

## CC(=O)N1CCc2nc(N3CCC(Oc4ccc(F)cc4F)CC3)c(-c3cnn(C4CNC4)c3)nc2C1 [Compound 134, 1-{3-[1-(azetidin-3-yl)-1H-pyrazol-4-yl]-2-[4-(2,4-difluorophenoxy)piperidin-1-yl]-5H,6H,7H,8H-pyrido[3,4-b]pyrazin-6-yl}ethan-1-one]
GPR6; [1]
  IC50: 1000 to 30000 nM
GPR3; [2]
  IC50: 1 to 30 µM

## CC(C)(O)C(O)c1cncc2nc(-c3cnn(C(F)F)c3)c(N3CCN(Cc4ccc(F)cc4F)CC3)nc12 (centres unmarked) [Compound 679, 1-{3-[1-(difluoromethyl)-4-pyrazolyl]-2-{4-[(2,4-difluorophenyl)methyl]-1-piperazinyl}-1,4,6-triaza-8-naphthyl}-2-methyl-1,2-propanediol]
GPR6; procedure of Example 24
  IC50: 1000 to 30000 nM
GPR3; procedure of Example 24
  IC50: 1 to 30 µM

## O=C(CO)N1CCc2nc(N3CCC(Oc4ccc(F)cc4F)CC3)c(-c3cnn(C4CCCCO4)c3)nc2C1 (centres unmarked) [Compound 204, 1-{2-[4-(2,4-difluorophenoxy)piperidin-1-yl]-3-[1-(oxan-2-yl)-1H-pyrazol-4-yl]-5H,6H,7H,8H-pyrido [3,4-b]pyrazin-6-yl}-2-hydroxyethan-1-one]
GPR6; [1]
  IC50: 100 to 1000 nM
GPR3; [2]
  IC50: ≥ 30 µM

## CC(=O)N1CCc2nc(N3CCC(Oc4ccccc4C#N)CC3)c(-c3cnn(C)c3)nc2C1 [Compound 499, o-{1-[6-acetyl-3-(1-methyl-4-pyrazolyl)-5,6,7,8-tetrahydro-1,4,6-triaza-2-naphthyl]-4-piperidyloxy} benzonitrile]
GPR6; [3]
  IC50: 100 to 1000 nM
GPR3; [4]
  IC50: ≥ 30 µM

## CCn1cnc(-c2nc3c(nc2N2CCC(Oc4ccc(F)cc4F)CC2)CCN(C(C)=O)C3)c1 [Compound 476, 1-{2-[4-(2,4-difluorophenoxy)piperidin-1-yl]-3-(1-ethyl-1H-imidazol-4-yl)-5H,6H,7H,8H-pyrido[3,4-b]pyrazin-6-yl}ethan-1-one]
GPR6; [1]
  IC50: 1000 to 30000 nM
GPR3; [2]
  IC50: 1 to 30 µM

## CC(=O)N1CCc2nc(N3CCC(Oc4cc(Cl)c(F)cc4F)CC3)c(-c3cnn(C)c3)nc2C1 [Compound 458, 1-{2-[4-(5-chloro-2,4-difluorophenoxy)piperidin-1-yl]-3-(1-methyl-1H-pyrazol-4-yl)-5H,6H,7H,8H-pyrido[3,4-b]pyrazin-6-yl}ethan-1-one]
GPR6; [1]
  IC50: 100 to 1000 nM
GPR3; [2]
  IC50: 1 to 30 µM

## Cn1cc(-c2nc3cnccc3nc2N2CCc3c(cnn3-c3ccc(F)cc3F)C2)cn1 [Compound 788, 1-(2,4-difluorophenyl)-5-[3-(1-methyl-4-pyrazolyl)-1,4,6-triaza-2-naphthyl]-4,5,6,7-tetrahydro-1H-1,2,5-triazaindene]
GPR6; procedure of Example 24
  IC50: ≥ 30000 nM
GPR3; procedure of Example 24
  IC50: ≥ 30 µM

## CCOc1ccc(OC2CCN(c3nc4c(nc3-c3cnn(C)c3)CN(C(C)=O)CC4)CC2)c(F)c1 [Compound 504, 1-{2-[4-(4-ethoxy-2-fluorophenoxy)-1-piperidyl]-3-(1-methyl-4-pyrazolyl)-5,6,7,8-tetrahydro-1,4,6-triaza-6-naphthyl}-1-ethanone]
GPR6; [3]
  IC50: 100 to 1000 nM
GPR3; [4]
  IC50: 1 to 30 µM

## CC(=O)N1CCc2nc(N3CCc4c(cnn4-c4ccc(F)cc4F)C3)c(-c3cnn(C)c3)nc2C1 [Compound 789, 1-{2-[1-(2,4-difluorophenyl)-4,5,6,7-tetrahydro-1H-1,2,5-triazainden-5-yl]-3-(1-methyl-4-pyrazolyl)-5,6,7,8-tetrahydro-1,4,6-triaza-6-naphthyl}-1-ethanone]
GPR6; procedure of Example 24
  IC50: 1000 to 30000 nM
GPR3; procedure of Example 24
  IC50: 1 to 30 µM

## Cn1cc(-c2nc3cnc([C@H](O)C(C)(C)O)cc3nc2N2CCN(Cc3ccc(F)cc3F)CC2)cn1 (single isomer, unassigned) [Compound 262]
GPR6; [1]
  IC50: 100 to 1000 nM
GPR3; [2]
  IC50: 1 to 30 µM

## [2H]C([2H])([2H])n1cc(-c2nc3c(nc2N2CCC(Oc4ccc(F)cc4F)CC2)CCN(C(C)=O)C3)cn1 [Compound 405, 1-{2-[4-(2,4-difluorophenoxy)piperidin-1-yl]-3-[1-(2H3)methyl-1H-pyrazol-4-yl]-5H,6H,7H,8H-pyrido[3,4-b]pyrazin-6-yl}ethan-1-one]
GPR6; [1]
  IC50: 100 to 1000 nM
GPR3; [2]
  IC50: 1 to 30 µM

## Cn1cc(-c2nc3cnccc3nc2N2CCN(Cc3ccc(F)cc3F)CC2=O)cn1 [Compound 259, 4-(2,4-difluorobenzyl)-1-(3-(1-methyl-1H-pyrazol-4-yl)pyrido[3,4-b]pyrazin-2-yl)piperazin-2-one]
GPR6; [1]
  IC50: ≥ 30000 nM
GPR3; [2]
  IC50: ≥ 30 µM

## CC(=O)N1CCc2nc(N3CCC(=C(C)c4ccc(F)cc4F)CC3)c(-c3cnn(C)c3)nc2C1 [Compound 718, 1-(2-{4-[1-(2,4-difluorophenyl)ethylidene]-1-piperidyl}-3-(1-methyl-4-pyrazolyl)-5,6,7,8-tetrahydro-1,4,6-triaza-6-naphthyl)-1-ethanone]
GPR6; procedure of Example 24
  IC50: 1000 to 30000 nM
GPR3; procedure of Example 24
  IC50: 1 to 30 µM

## CCn1cc(-c2nc3c(nc2N2CCN(C(=O)c4ccc(Cl)c(C)c4)CC2)CCN(C(C)=O)C3)cn1 [Compound 550, 1-{2-[4-(4-chloro-3-toluoyl)-1-piperazinyl]-3-(1-ethyl-4-pyrazolyl)-5,6,7,8-tetrahydro-1,4,6-triaza-6-naphthyl}-1-ethanone]
GPR6; [3]
  IC50: 1000 to 30000 nM
GPR3; [4]
  IC50: 1 to 30 µM
